Tests used:
[1] = target: T1, Dimer of Gag-Pol polyprotein [501-599] (Human immunodeficiency virus 1, UniProt P03367); assay: Enzyme Inhibition Assay; settings: pH 5.5; 23 °C
T1 construct: 501-599
Protocol: (§1) Enzyme assay was performed at room temperature on a microplate reader (Safire2TM) using black 96-well microtiter plates purchased from Nunc. Inhibitors and substrates were previously dissolved in 4% DMSO. The hydrolysis of the substrates was recorded as increase in fluorescence intensity. IC50 values were generated by nonlinear regression analysis from plots of vi/v0 versus inhibitor concentration, in which vi is the velocity in presence, and v0 the velocity in the absence of an inhibitor. The kinetic constants were determined by the method of Lineweaver and Burk, and Ki values were consecutively calculated from the following equation: Ki = IC50/[1 + (S/Km)]. The overall error of the assays is estimated to be +/-40%.

Pepsin A = Pepsin A (Sus scrofa, UniProt P00791); assay: Enzyme Inhibition Assay; settings: 25 °C
Protocol: as §1

Chain of Pepsin A (P00791 whole entry): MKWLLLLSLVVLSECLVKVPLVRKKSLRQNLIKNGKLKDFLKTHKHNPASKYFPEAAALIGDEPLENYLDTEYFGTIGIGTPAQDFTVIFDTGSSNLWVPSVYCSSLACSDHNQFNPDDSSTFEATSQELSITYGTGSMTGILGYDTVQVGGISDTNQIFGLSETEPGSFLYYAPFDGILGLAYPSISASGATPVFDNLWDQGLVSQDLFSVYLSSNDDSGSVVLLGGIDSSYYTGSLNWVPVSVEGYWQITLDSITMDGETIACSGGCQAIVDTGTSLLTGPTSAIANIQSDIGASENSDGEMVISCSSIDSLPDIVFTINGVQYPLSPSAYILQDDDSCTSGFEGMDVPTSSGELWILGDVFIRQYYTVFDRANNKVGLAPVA

SMILES: Nc1ccc(S(=O)(=O)N(CCCNCCCN(Cc2ccccc2)S(=O)(=O)c2ccc(N)cc2)Cc2ccccc2)cc1 [phenyl-substituted sulfonamides, 6f]
- IC50 [1]: > 250 µM

SMILES: O=C(Cc1ccccc1)N(CCNCCN(Cc1ccccc1)C(=O)Cc1ccccc1)Cc1ccccc1 [carboxamide, 12a]
- IC50 (Pepsin A): > 250 µM
- IC50 [1]: > 250 µM

SMILES: Nc1ccc(S(=O)(=O)N(CCCNCCN(Cc2ccccc2)S(=O)(=O)c2ccc(N)cc2)Cc2ccccc2)cc1 [phenyl-substituted sulfonamides, 6e]
- IC50 (Pepsin A): > 250 µM
- IC50 [1]: > 250 µM

SMILES: O=C(Cc1ccccc1)N(CCCNCCN(Cc1ccccc1)C(=O)Cc1ccccc1)Cc1ccccc1 [carboxamide, 12b]
- IC50 (Pepsin A): > 250 µM
- IC50 [1]: > 250 µM

SMILES: O=C(Cc1ccccc1)N(CCCNCCCN(Cc1ccccc1)C(=O)Cc1ccccc1)Cc1ccccc1 [carboxamide, 12c]
- IC50 (Pepsin A): > 250 µM
- IC50 [1]: > 250 µM

SMILES: O=S(=O)(c1ccccc1)N(CCCNCCCN(Cc1ccccc1)S(=O)(=O)c1ccccc1)Cc1ccccc1 [phenyl-substituted sulfonamides, 6c]
- IC50 (Pepsin A): > 250 µM
- IC50 [1]: > 250 µM
